Broadly, the inhibition is the percentage by which the read-out fell short of the control. What is called IC50 is the concentration that gives 50% inhibition. The term Cmax denotes the highest concentration seen after dosing.

The target of series [1] is T1, Phosphodiesterase 3 (Homo sapiens) (UniProt Q14432+Q13370). Briefly: Inhibition of human platelet Phosphodiesterase 3 at 20 uM.
Series [2] addresses T2, Phosphodiesterase 4 (Homo sapiens, UniProt P27815+Q08499+Q07343+Q08493). Briefly: (§1) Inhibition of human phosphodiesterase 4 from U937 cells. Conditions: u-937. It is filed as cell-based.
Series [3] concerns the target T1, Phosphodiesterase 3 (Homo sapiens). Briefly: Inhibition of human platelet Phosphodiesterase 3 at 20 uM (inactive).
Series [4] addresses T2, Phosphodiesterase 4. The description is as §1. It is filed as cell-based. The settings on record: U-937, concentration not given here.
In series [5] the target is Phosphodiesterase 4 (Rattus norvegicus) (UniProt P14270+P14646+P14644+P54748). Briefly: Inhibition of rolipram binding to rat brain at 1 uM. In kind it is tissue-based.
In series [6] the target is T1, Phosphodiesterase 3 (Homo sapiens). Briefly: Inhibition of human platelet Phosphodiesterase 3 at 1 uM (inactive).
Series [7] is described as follows: Maximum plsma drug concentration in guinea pig when 3 mg/kg dose was given perorally. It is filed as ADME, organism-based, Cavia porcellus. Set-up: dose 3 mg/kg, route oral. The settings on record: plasma, po.
A short description of series [8]: Bioavailability in guinea pig was tested. In kind it is ADME, organism-based, Cavia porcellus. The settings on record: in vivo, read-out: Bioavailabiility.
Series [9] is described as follows: AUC tested in guinea pig when 3 mg/kg dose was given perorally. It is filed as ADME, organism-based, Cavia porcellus, Plasma. Set-up: dose 3 mg/kg, route oral. The settings on record: in vivo, po.
The target in series [10] is T1, Phosphodiesterase 3 (Homo sapiens). Kind of series: Inhibition of human platelet phosphodiesterase 3 at 1 uM.

Activity calls are given as the source filed them.

`COc1ncc(C(=O)Nc2c(Cl)c[n+]([O-])cc2Cl)c2cc(C3CCOCC3)oc12` displayed an inhibition in series [1] of 3%. In addition, at Phosphodiesterase 4 [2], the IC50 was determined as 47 nM.

Regarding `COc1ncc(C(=O)Nc2c(Cl)c[n+]([O-])cc2Cl)c2cc(-c3cccnc3)oc12`, the IC50 on Phosphodiesterase 4 [2] was 62 nM.

In the case of `COCc1cc2c(C(=O)Nc3c(Cl)c[n+]([O-])cc3Cl)cnc(OC)c2o1`, the inhibition result in series [3] is “inactive”. The IC50 at Phosphodiesterase 4 [2] is 47 nM.

In the case of `CCc1cc2c(C(=O)Nc3c(Cl)c[n+]([O-])cc3Cl)cnc(OC(F)F)c2o1`, the half-inhibitory concentration (IC50) against Phosphodiesterase 4 [2] was determined as 3.7 nM.

As for `CCc1cc2c(C(=O)Nc3c(Cl)c[n+]([O-])cc3Cl)cnc(O)c2o1`, the inhibition was found to be 22% on Phosphodiesterase 4 [4] and 61% in series [5].

In the case of `CCc1cc2c(C(=O)Nc3cc[n+]([O-])cc3OC)cnc(OC)c2o1`, on Phosphodiesterase 4 [4], the inhibition was 21%.

Turning to `COc1ncc(C(=O)Nc2c(Cl)c[n+]([O-])cc2Cl)c2cc(C3CCOC3)oc12` (centres undefined), the half-inhibitory concentration (IC50) against Phosphodiesterase 4 [2] was determined as 23 nM. This counts as double-digit nanomolar.

At Phosphodiesterase 4 [2], `CCc1cc2c(C(=O)Nc3ncncc3C#N)cnc(OC)c2o1` gave an IC50 of 140 nM. In addition, the inhibition result in series [6] is “inactive”.

In the case of `CCc1cc2c(C(=O)Nc3c(Cl)c[n+]([O-])cc3Cl)cnc(OC)c2o1`, in series [7], the highest level (Cmax) was 1410 ng/mL. Also, the bioavailability in [8] was determined as 54%. For the same compound, the inhibition in [1] turned out to be 32%. In addition, the IC50 on Phosphodiesterase 4 [2] turned out to be 14 nM. For the same compound, the AUC in [9] amounted to 4942 ng/mL.

`COc1ncc(C(=O)Nc2c(Cl)c[n+]([O-])cc2Cl)c2cc(C3(OC)CCN(C(=O)OC(C)(C)C)CC3)oc12`: in series [3], the inhibition result is “inactive”. In addition, the IC50 at Phosphodiesterase 4 [2] was found to be 48 nM.

For the compound `CCc1cc2c(C(=O)Nc3cc[n+]([O-])cc3C)cnc(OC)c2o1`, the IC50 against Phosphodiesterase 4 [2] amounted to 120 nM.

At Phosphodiesterase 4 [2], `CCc1cc2c(C(=O)Nc3c(C)cc(C#N)cc3Cl)cnc(OC)c2o1` had an IC50 of 230 nM.

On Phosphodiesterase 4 [2], `CCc1cc2c(C(=O)Nc3c(F)cccc3F)cnc(OC)c2o1` yielded an IC50 of 66 nM.

Compound `CCc1cc2c(C(=O)Nc3cc[n+]([O-])cc3Cl)cnc(OC)c2o1` yielded an inhibition in series [10] of 39%. In addition, the IC50 on Phosphodiesterase 4 [2] was found to be 120 nM.

The values above are taken from ChEMBL document CHEMBL1135052, “7-Methoxyfuro[2,3-c]pyridine-4-carboxamides as PDE4 inhibitors: a potential treatment for asthma” (Bioorg Med Chem Lett, 2002).
